From patent EP4603506A1, “NOVEL GLP-1 RECEPTOR ANTAGONIST, AND PHARMACEUTICAL COMPOSITION FOR PREVENTING OR TREATING CONGENITAL […] OR HYPOGLYCEMIA, COMPRISING SAME” (Hanmi Pharm. Co., Ltd., priority 2022, dated 2024)
Starred links: 1 amine or outer side, 2 acyl side, 3 side chain; linkers in the order of their positions; H or OH if unused. Residues, ends and D or L forms follow the SMILES beside them. Groups on a side chain read outwards from the residue. *: point of attachment. C18 diacid = O=C(O)CCCCCCCCCCCCCCCCC(=O)*; γGlu = O=C(O)[C@H](CCC(=O)[*:2])N[*:1]; AEEA = NCCOCCOCC(=O)O

Assays:
human GLP-1R (hGLP-1R) = human GLP-1R (hGLP-1R) (Homo sapiens, UniProt P43220); assay: In vitro cell activity: cAMP inhibition (LANCE Ultra cAMP kit) in CHO cells expressing human GLP-1R, with GLP-1 added; type: cell-based; details: relative activity from IC50 of cAMP inhibition; 0.1 nM GLP-1 added; comparative substance exendin-3 (9-39) amide = 100
Sequence of human GLP-1R (hGLP-1R) (P43220 24-463): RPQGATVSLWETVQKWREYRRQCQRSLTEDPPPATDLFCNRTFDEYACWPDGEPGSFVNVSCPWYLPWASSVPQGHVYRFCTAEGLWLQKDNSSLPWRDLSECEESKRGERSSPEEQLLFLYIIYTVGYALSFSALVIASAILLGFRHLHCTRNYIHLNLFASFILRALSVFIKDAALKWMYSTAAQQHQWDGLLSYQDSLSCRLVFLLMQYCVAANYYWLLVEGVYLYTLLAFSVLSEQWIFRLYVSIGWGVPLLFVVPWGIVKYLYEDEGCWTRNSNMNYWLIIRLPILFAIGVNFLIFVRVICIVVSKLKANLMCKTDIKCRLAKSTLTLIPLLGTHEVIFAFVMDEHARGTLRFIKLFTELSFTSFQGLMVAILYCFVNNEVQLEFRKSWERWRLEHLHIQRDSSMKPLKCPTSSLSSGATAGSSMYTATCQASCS
Protocol: The human GLP-1R-expressed CHO cells were cultured in a 384-well plate for 24 hours. Thereafter, the culture was removed, and 10 µL of each serially diluted substance was added to the plate, followed by incubation at room temperature for 30 minutes. Then, 5 µL of Eu-cAMP tracer was added, and then 5 µL of a buffer containing cAMP antibodies was added, followed by incubation at room temperature for 60 minutes. […]

C57BL/6N mice = assay: Oral glucose tolerance test (OGTT), blood glucose levels; type: in vivo; details: 2 g/kg oral glucose after 4-hour fasting, 3690 and 7380 µg/kg subcutaneous, 24 hours before OGTT, versus vehicle control, FIG. 1
Protocol: The test was conducted on 8-week-old male mice, and during the study, five mice were housed in each group and had free access to drinking water. The lights were turned off from 6 PM to 6 AM.
The administration of the drugs was completed 24 hours before the oral glucose tolerance test (OGTT) for Groups 1, 3, and 4, and 30 minutes before for Group 2. Particularly, the dose was expressed as a value based on the value obtained by subtracting the mass of the fatty acid moieties from the total mass of the acylated GLP-1 receptor antagonist analog conjugate, that is, the value obtained by summing the mass of each of only polypeptide moieties.
As for the OGTT, all the groups were orally administered 2 g/kg glucose once after 4-hour fasting, and then blood samples were consecutively collected from the tail vein at specific time intervals (0, 15, 30, 60, and 120 minutes) to measure blood glucose levels by a OneTouch blood glucose meter (OneTouch Select®, LifeScan, USA). Statistical analysis was performed using an unpaired t-test to compare between the control group and the test groups (# ~ ###p < 0.05 ~ 0.001).

[1] = test system: PBH rat model (VSG, SD rats); assay: Mixed meal tolerance test (MMTT) in postbariatric hypoglycemia (PBH) rat model induced by vertical sleeve gastrectomy (VSG); type: in vivo; details: MMTT 4 hours after 3720 µg/kg (1070.5 nmol/kg) subcutaneous, versus excipient, FIG. 2
Protocol: A PBH rat model was established by performing sham operations or VSG surgery on SD rats. The rats were fed a high-fat diet (HFD) for 19 weeks, and divided randomly into two groups with 10 animals each (an excipient control group and a GLP-1R antagonist analog conjugate administered group). […] As for the MMTT, all the groups were orally administered 2 mL of a mixed meal (Ensure Plus®, Abbott, USA) once after 5-hour fasting, and then blood samples were consecutively collected at specific time intervals (0, 15, 30, 45, 60, and 120 minutes) to measure blood glucose levels (GDoctor, Allmedicus Co., Korea). Statistical analysis was performed using the one-way ANOVA to compare between the VSG rat excipient group (control group) and the test groups (* ~ ***p < 0.05 ~ 0.001). Particularly, the dose was expressed as a value based on the value obtained by subtracting the mass of the fatty acid moieties from the total mass of the acylated GLP-1 receptor antagonist analog conjugate, that is, the value obtained by summing the masses of each of only polypeptide moieties.
Additionally, 15 minutes after the MMTT test, plasma was isolated from blood samples, and the insulin secretion level was measured using a rat insulin ELISA kit ([…], Merck Millipore, USA).

Compound	In vitro activity compared with comparative substance (%) (human GLP-1R (hGLP-1R))	blood glucose levels (C57BL/6N mice)	blood glucose levels [1]
CC[C@H](C)[C@H](NC(=O)[C@H](Cc1ccccc1)NC(=O)[C@H](CC(C)C)NC(=O)[C@H](CCCNC(=N)N)NC(=O)[C@@H](NC(=O)[C@H](C)NC(=O)[C@H](CCC(=O)O)NC(=O)[C@H](CCC(=O)O)NC(=O)[C@H](CCC(=O)O)NC(=O)[C@H](CC(C)C)NC(=O)[C@H](Cc1ccc(O)cc1)NC(=O)[C@H](CO)NC(=O)[C@H](CO)NC(=O)[C@@H](NC(=O)[C@H](CC(=O)O)NC(C)=O)C(C)C)C(C)C)C(=O)N[C@@H](C)C(=O)N[C@@H](Cc1c[nH]c2ccccc12)C(=O)N[C@@H](CC(C)C)C(=O)N[C@H](C(=O)N[C@@H](CCCCN)C(=O)NCC(=O)NCC(=O)N1CCC[C@H]1C(=O)N[C@@H](CO)C(=O)N[C@@H](CO)C(=O)NCC(=O)N[C@@H](C)C(=O)N1CCC[C@H]1C(=O)N1CCC[C@H]1C(=O)N1CCC[C@H]1C(=O)N[C@@H](CO)C(=O)N[C@@H](CS)C(N)=O)C(C)C [SEQ ID NO: 12] (Ac-DVSSYLEEEAVRLFIAWLVKGGPSSGAPPPSC-NH2)	189.3	–	–
CC[C@H](C)[C@H](NC(=O)[C@H](Cc1ccccc1)NC(=O)[C@H](CC(C)C)NC(=O)[C@H](CCCNC(=N)N)NC(=O)[C@H](C)NC(=O)[C@H](C)NC(=O)[C@H](CCC(=O)O)NC(=O)[C@H](CCC(=O)O)NC(=O)[C@H](CCC(=O)O)NC(=O)[C@H](CC(C)C)NC(=O)[C@H](Cc1ccc(O)cc1)NC(=O)[C@H](CO)NC(=O)[C@H](CO)NC(=O)[C@H](CC(C)C)NC(=O)[C@H](CC(=O)O)NC(C)=O)C(=O)N[C@@H](CCC(=O)O)C(=O)N[C@@H](Cc1c[nH]c2ccccc12)C(=O)N[C@@H](CC(C)C)C(=O)N[C@@H](CCCCNC(=O)COCCOCCNC(=O)COCCOCCNC(=O)CC[C@H](NC(=O)CCCCCCCCCCCCCCCCC(=O)O)C(=O)O)C(=O)N[C@@H](CC(N)=O)C(=O)NCC(=O)NCC(=O)N1CCC[C@H]1C(=O)N[C@@H](CO)C(=O)N[C@@H](CO)C(=O)NCC(=O)N[C@@H](C)C(=O)N1CCC[C@H]1C(=O)N1CCC[C@H]1C(=O)N1CCC[C@H]1C(=O)N[C@@H](CO)C(N)=O [SEQ ID NO: 14]	1.7	–	–
CC[C@H](C)[C@H](NC(=O)[C@H](Cc1ccccc1)NC(=O)[C@H](CC(C)C)NC(=O)[C@H](CCCNC(=N)N)NC(=O)[C@@H](NC(=O)[C@H](C)NC(=O)[C@H](CCC(=O)O)NC(=O)[C@H](CCC(=O)O)NC(=O)[C@H](CCC(=O)O)NC(=O)[C@H](CC(C)C)NC(=O)[C@H](Cc1ccc(O)cc1)NC(=O)[C@H](CO)NC(=O)[C@H](CO)NC(=O)[C@@H](NC(=O)[C@H](CC(=O)O)NC(C)=O)C(C)C)C(C)C)C(=O)N[C@@H](C)C(=O)N[C@@H](Cc1c[nH]c2ccccc12)C(=O)N[C@@H](CC(C)C)C(=O)N[C@H](C(=O)N[C@@H](CCCCNC(=O)COCCOCCNC(=O)COCCOCCNC(=O)CC[C@H](NC(=O)CCCCCCCCCCCCCCCCC(=O)O)C(=O)O)C(=O)NCC(=O)NCC(=O)N1CCC[C@H]1C(=O)N[C@@H](CO)C(=O)N[C@@H](CO)C(=O)NCC(=O)N[C@@H](C)C(=O)N1CCC[C@H]1C(=O)N1CCC[C@H]1C(=O)N1CCC[C@H]1C(=O)N[C@@H](CO)C(N)=O)C(C)C [SEQ ID NO: 15]	14.3	–	–
CC[C@H](C)[C@H](NC(=O)[C@H](Cc1ccccc1)NC(=O)[C@H](CC(C)C)NC(=O)[C@H](CCCNC(=N)N)NC(=O)[C@H](C)NC(=O)[C@H](C)NC(=O)[C@H](CCC(=O)O)NC(=O)[C@H](CCC(=O)O)NC(=O)[C@H](CCC(=O)O)NC(=O)[C@H](CC(C)C)NC(=O)[C@H](Cc1ccc(O)cc1)NC(=O)[C@H](CO)NC(=O)[C@H](CO)NC(=O)[C@@H](NC(=O)[C@H](CC(=O)O)NC(C)=O)C(C)C)C(=O)N[C@@H](C)C(=O)N[C@@H](Cc1c[nH]c2ccccc12)C(=O)N[C@@H](CC(C)C)C(=O)N[C@H](C(=O)N[C@@H](CCCCNC(=O)COCCOCCNC(=O)COCCOCCNC(=O)CC[C@H](NC(=O)CCCCCCCCCCCCCCCCC(=O)O)C(=O)O)C(=O)NCC(=O)NCC(=O)N1CCC[C@H]1C(=O)N[C@@H](CO)C(=O)N[C@@H](CO)C(=O)NCC(=O)N[C@@H](C)C(=O)N1CCC[C@H]1C(=O)N1CCC[C@H]1C(=O)N1CCC[C@H]1C(=O)N[C@@H](CO)C(N)=O)C(C)C [SEQ ID NO: 16]	13.5	–	–
CC[C@H](C)[C@H](NC(=O)[C@H](Cc1ccccc1)NC(=O)[C@H](CC(C)C)NC(=O)[C@H](CCCNC(=N)N)NC(=O)[C@@H](NC(=O)[C@H](C)NC(=O)[C@H](CCC(=O)O)NC(=O)[C@H](CCC(=O)O)NC(=O)[C@H](CCC(=O)O)NC(=O)[C@H](CC(C)C)NC(=O)[C@H](Cc1ccc(O)cc1)NC(=O)[C@H](CO)NC(=O)[C@H](CO)NC(=O)[C@@H](NC(=O)[C@H](CC(=O)O)NC(C)=O)C(C)C)C(C)C)C(=O)N[C@@H](C)C(=O)N[C@@H](Cc1c[nH]c2ccccc12)C(=O)N[C@@H](CC(C)C)C(=O)N[C@H](C(=O)N[C@@H](CCCCN)C(=O)NCC(=O)NCC(=O)N1CCC[C@H]1C(=O)N[C@@H](CO)C(=O)N[C@@H](CO)C(=O)NCC(=O)N[C@@H](C)C(=O)N1CCC[C@H]1C(=O)N1CCC[C@H]1C(=O)N1CCC[C@H]1C(=O)N[C@@H](CO)C(=O)N[C@@H](CCCCNC(=O)COCCOCCNC(=O)COCCOCCNC(=O)CC[C@H](NC(=O)CCCCCCCCCCCCCCCCC(=O)O)C(=O)O)C(N)=O)C(C)C [SEQ ID NO: 18] (Ac-DVSSYLEEEAVRLFIAWLVKGGPSSGAPPPSK([AEEA-AEEA-γGlu-C18 diacid])-NH2)	19.8	–	–
DLSSYLEEEAVRLFIEWLKNGGPSSGAPPPSK(2) [SEQ ID NO: 17]	–	increased the blood glucose levels in vivo compared with the control group at all the doses	significantly increased blood glucose levels in vivo compared with PBH rats administered the excipient
